Measured values reported in ChEMBL document CHEMBL1201862, “PubChem BioAssay data set” (2004).
Calls of active or inactive are those of the source.

Assays:
Genome polyprotein = Genome polyprotein (dengue virus type 2, UniProt P29990); assay: Dengue-2 NS5 methyltransferase inhibitors, primary screen, biochemical, confirmation dose response (AID 588689); type: functional
Phospholipase A2 = Phospholipase A2 (Homo sapiens, UniProt P04054); type: functional;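 also: confirmatory dose-response counterscreen on phospholipase A2, testing hits that came from an ultra-high-throughput screen for ATG4B inhibitors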
[1] = molecular target: Heat shock protein HSP 90-alpha (Homo sapiens, UniProt P07900); type: functional, organism-based
Protein RecA = molecular target: T1, Protein RecA (Mycobacterium tuberculosis, UniProt P9WHJ3); assay: Fluorescence Cell-Free Homogeneous Dose Retest to Identify Inhibitors of RecA-Intein Splicing Activity. [Related pubchem assays (depositor defined):AID2097, AID2223, AID489010, AID492950]; type: functional
T1 sequence (P9WHJ3 whole entry): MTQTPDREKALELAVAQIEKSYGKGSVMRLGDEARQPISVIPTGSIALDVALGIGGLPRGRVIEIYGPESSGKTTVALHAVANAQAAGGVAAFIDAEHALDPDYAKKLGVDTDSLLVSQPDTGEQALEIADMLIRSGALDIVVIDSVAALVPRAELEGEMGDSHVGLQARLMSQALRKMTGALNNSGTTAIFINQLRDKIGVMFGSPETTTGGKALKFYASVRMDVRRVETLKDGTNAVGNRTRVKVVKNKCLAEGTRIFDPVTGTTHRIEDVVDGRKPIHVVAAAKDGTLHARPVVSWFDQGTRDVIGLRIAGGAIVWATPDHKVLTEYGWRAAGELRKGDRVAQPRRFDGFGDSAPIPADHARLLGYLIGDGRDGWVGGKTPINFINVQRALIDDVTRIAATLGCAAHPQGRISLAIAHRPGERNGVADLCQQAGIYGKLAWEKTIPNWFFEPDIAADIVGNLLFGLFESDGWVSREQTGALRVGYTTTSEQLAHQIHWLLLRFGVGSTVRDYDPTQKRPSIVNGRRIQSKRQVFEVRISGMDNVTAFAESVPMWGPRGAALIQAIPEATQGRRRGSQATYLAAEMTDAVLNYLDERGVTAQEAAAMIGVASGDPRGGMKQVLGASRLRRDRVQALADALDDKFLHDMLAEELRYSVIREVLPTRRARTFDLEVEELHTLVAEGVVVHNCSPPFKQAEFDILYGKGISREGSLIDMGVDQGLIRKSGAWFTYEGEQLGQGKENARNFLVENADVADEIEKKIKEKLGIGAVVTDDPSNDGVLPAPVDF

[2] = molecular target: T2, Replicative DNA helicase DnaB (Mycobacterium tuberculosis, UniProt P9WMR3); assay: DnaB intein splicing inhibitors, dose response, biochemical, cell-free fluorescence (AID 449749); type: functional
T2 sequence (P9WMR3 whole entry): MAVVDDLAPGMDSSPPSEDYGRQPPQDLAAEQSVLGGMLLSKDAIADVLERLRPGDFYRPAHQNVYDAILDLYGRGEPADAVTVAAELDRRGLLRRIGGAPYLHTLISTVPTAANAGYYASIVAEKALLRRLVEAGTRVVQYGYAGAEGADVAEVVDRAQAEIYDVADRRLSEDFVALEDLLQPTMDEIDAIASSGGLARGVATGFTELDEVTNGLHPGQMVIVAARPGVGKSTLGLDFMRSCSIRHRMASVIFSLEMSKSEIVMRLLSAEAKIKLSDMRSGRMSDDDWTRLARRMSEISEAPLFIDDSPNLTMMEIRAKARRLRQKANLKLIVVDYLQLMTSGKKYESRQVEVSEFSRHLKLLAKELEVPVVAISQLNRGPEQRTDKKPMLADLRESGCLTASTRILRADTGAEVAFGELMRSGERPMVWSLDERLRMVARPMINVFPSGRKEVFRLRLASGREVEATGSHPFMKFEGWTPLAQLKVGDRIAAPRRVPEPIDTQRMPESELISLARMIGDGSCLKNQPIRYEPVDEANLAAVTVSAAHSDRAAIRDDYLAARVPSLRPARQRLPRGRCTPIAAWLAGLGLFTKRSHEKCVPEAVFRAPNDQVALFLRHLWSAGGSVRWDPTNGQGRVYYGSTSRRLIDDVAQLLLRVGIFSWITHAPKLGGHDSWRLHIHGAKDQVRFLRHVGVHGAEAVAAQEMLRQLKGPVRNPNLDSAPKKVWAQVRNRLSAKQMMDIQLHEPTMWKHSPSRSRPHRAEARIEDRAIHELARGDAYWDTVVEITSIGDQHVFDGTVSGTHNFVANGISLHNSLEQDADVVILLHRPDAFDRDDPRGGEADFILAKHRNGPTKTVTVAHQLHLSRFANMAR

Prothrombin = Prothrombin (Bos taurus, UniProt P00735); assay: thrombin inhibition, dose response, biochemical, fluorescence polarization, uHTS hits (AID 602369); type: functional
[3] = molecular target: T3, High affinity choline transporter 1 (Homo sapiens, UniProt Q9GZV3); assay: CHT inhibitors, dose response, cell-based, 5-point CRC, membrane potential dye (AID 504840); type: functional
T3 sequence (Q9GZV3 whole entry): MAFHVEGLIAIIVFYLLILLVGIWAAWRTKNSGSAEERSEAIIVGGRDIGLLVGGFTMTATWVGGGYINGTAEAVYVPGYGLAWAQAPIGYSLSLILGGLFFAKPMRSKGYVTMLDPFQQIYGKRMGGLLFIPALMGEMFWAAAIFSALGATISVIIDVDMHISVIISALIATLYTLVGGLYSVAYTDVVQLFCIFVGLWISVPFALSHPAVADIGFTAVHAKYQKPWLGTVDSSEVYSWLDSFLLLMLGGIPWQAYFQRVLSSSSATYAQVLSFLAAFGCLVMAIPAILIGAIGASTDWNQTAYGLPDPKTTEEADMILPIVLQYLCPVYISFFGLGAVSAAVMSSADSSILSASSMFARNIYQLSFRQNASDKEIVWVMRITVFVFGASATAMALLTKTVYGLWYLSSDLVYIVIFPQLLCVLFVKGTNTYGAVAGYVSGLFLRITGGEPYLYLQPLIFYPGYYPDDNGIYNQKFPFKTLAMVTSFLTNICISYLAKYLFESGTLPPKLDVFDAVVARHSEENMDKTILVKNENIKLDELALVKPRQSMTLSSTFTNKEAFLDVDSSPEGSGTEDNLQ

Nonstructural protein 1 = Nonstructural protein 1 (Influenza A virus, UniProt Q194T2); type: functional, Influenza A virus (A/California/07/2009(H1N1))
[4] = molecular target: 26S proteasome non-ATPase regulatory subunit 14 (Homo sapiens, UniProt O00487); assay: inhibition of proteasome subunit RPN11 – biochemical, fluorescence polarization, uHTS hits, confirmation (AID 602368); type: functional
[5] = molecular target: 72 kDa type IV collagenase (Homo sapiens, UniProt P08253); assay: Dose Response validation of uHTS RPN11 inhibitor hits using a MMP-2 Fluorescence assay.; type: functional
[6] = molecular target: Peroxisome proliferator-activated receptor gamma/Nuclear receptor coactivator 3 (Homo sapiens, UniProt P37231); assay: (§1) TR-FRET dose response biochemical High Throughput Screening assay for agonists of the steroid receptor coactivator 3 (SRC-3) recruitment by the peroxisome proliferator-activated receptor gamma (PPAR gamma): non-selective agonists. [Related pubchem assays: 1301 (Confirmation screen.), 1048 (Primary screen.)]; type: functional
[7] = molecular target: Peroxisome proliferator-activated receptor gamma/Nuclear receptor coactivator 1 (Homo sapiens, UniProt P37231); assay: as §1, with “1 (SRC-1)” for “3 (SRC-3)”, “assays (depositor defined):AID1300, AID1808, AID504735, AID631]” for “assays: 1301 (Confirmation screen.), 1048 (Primary screen.)]”; type: protein assay
[8] = molecular target: Peroxisome proliferator-activated receptor gamma/Nuclear receptor coactivator 2 (Homo sapiens, UniProt P37231); assay: TR-FRET dose response biochemical High Throughput Screening assay for agonists of the steroid receptor coactivator 2 (SRC-2) recruitment by the peroxisome proliferator-activated receptor gamma (PPAR gamma): non-selective agonists. [Related pubchem assays: 1297, 1032 ]; type: functional
[9] = molecular target: T4, Carboxy-terminal domain RNA polymerase II polypeptide A small phosphatase 1 (Homo sapiens, UniProt Q9GZU7); assay: inhibitors of CTDSP1, concentration-response testing, biochemical assay, absorbance-based, actives from ultra-high-throughput screening (AID 540297); type: functional
T4 sequence (Q9GZU7 whole entry): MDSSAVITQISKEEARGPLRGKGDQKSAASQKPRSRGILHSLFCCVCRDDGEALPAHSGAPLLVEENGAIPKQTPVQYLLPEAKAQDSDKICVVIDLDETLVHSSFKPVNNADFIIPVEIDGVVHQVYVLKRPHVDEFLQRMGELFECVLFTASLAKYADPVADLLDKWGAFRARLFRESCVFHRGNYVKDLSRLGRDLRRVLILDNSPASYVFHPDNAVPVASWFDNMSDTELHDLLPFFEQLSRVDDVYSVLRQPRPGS

[10] = StAR promoter reporter inhibition counter-screen, dose response, counter-screen for LRH-1 inverse agonist project, cell-based, luminescence, luciferase reporter (AID 651969); type: functional
[11] = molecular target: T5, Zinc finger protein mex-5 (Caenorhabditis elegans, UniProt Q9XUB2); assay: MEX-5/TCR-2 RNA interaction inhibitors, dose response, biochemical, C. elegans, fluorescence polarization (AID 1960)
T5 sequence (Q9XUB2 whole entry): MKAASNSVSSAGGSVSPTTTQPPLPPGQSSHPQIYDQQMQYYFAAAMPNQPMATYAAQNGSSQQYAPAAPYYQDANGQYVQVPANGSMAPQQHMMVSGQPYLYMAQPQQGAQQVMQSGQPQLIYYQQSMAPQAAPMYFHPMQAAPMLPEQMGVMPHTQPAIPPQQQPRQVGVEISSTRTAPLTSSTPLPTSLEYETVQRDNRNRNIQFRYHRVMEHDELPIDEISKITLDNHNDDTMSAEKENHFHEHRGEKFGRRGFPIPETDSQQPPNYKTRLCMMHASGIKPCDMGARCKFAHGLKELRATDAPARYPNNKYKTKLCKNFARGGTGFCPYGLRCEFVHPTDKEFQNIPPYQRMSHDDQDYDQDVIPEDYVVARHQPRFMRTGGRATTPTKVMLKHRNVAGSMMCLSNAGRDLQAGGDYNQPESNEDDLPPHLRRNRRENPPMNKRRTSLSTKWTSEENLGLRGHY

[12] = molecular target: T6, RNA-binding protein pos-1 (Caenorhabditis elegans, UniProt G5EF15); assay: inhibitors of POS-1/mex-3 RNA binding, dose response, biochemical, fluorescence polarization (AID 1964);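 also: purified POS-1 fused to maltose binding protein made in E. coli; potency of compounds blocking POS-1 binding to fluorescent RNA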
T6 sequence (G5EF15 whole entry): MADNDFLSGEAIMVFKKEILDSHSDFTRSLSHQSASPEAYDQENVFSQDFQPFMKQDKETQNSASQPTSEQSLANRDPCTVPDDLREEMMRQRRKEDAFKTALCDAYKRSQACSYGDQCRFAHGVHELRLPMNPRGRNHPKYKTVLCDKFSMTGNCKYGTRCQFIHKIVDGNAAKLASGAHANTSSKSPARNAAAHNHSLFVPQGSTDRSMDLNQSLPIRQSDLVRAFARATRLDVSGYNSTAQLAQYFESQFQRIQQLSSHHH

[13] = cytotoxicity in HEK-293T cells, dose response, cytotoxicity control for BCR NF-kB inhibitor project, luminescence, B-cell screen hits (AID 489021); type: functional, cell-based;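 also: HEK-293T cells carrying an NF-kB luciferase reporter; cells exposed to compound for about 14 hours before viability readout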
[14] = molecular target: T7, Heat shock factor protein 1 (Mus musculus, UniProt P38532); assay: inhibition of MG132-induced HSE-luciferase signal, confirmation, cell-based, NIH3T3, luminescence, dose retest (AID 2382); type: functional;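 also: NIH3T3 fibroblasts with HSF1-driven luciferase reporter stressed by proteasome inhibitor MG132; luminescence from HSF1-driven luciferase expression after 8 hours of MG132 stress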
T7 sequence (P38532 whole entry): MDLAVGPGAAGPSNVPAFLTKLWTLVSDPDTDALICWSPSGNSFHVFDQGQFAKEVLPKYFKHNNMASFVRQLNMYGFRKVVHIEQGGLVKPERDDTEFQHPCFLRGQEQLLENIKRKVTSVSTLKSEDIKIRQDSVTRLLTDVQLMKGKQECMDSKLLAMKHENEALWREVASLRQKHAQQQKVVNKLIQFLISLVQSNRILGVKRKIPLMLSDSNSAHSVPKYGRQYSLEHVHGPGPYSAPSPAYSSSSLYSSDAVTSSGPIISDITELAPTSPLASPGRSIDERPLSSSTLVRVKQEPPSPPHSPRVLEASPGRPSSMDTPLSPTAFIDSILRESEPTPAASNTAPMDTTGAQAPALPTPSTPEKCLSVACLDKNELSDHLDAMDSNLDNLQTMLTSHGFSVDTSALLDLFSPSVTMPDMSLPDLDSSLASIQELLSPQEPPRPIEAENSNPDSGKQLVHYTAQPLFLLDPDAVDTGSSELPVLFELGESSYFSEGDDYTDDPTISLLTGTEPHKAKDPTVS

Chain of 26S proteasome non-ATPase regulatory subunit 14 (O00487 whole entry): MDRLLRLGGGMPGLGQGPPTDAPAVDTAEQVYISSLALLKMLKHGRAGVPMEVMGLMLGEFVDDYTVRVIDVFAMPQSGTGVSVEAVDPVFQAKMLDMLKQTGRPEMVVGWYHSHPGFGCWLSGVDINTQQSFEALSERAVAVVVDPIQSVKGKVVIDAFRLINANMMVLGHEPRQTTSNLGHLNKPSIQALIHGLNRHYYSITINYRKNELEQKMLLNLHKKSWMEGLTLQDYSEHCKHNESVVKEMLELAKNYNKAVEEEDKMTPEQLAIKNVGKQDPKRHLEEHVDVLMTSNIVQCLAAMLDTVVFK
Chain of 72 kDa type IV collagenase (P08253 whole entry): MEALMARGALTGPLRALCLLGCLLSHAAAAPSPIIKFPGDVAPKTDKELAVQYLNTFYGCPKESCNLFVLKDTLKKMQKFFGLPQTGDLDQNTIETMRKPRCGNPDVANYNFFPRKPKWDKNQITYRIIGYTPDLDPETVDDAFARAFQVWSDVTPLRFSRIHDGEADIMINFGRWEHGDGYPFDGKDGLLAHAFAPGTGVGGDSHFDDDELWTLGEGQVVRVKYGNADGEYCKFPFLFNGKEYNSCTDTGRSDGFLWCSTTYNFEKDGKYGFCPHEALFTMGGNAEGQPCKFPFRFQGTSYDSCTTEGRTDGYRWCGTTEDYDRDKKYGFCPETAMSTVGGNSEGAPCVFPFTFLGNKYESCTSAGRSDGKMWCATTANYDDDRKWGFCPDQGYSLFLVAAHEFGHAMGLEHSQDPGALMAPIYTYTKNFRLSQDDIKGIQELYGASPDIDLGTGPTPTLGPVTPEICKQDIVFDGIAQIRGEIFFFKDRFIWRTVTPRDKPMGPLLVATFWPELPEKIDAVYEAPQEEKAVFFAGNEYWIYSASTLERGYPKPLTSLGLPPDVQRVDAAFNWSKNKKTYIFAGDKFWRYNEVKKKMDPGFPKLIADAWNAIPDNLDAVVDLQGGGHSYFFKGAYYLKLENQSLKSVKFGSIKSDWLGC
Chain of Genome polyprotein (P29990 2492-3391 limits assumed): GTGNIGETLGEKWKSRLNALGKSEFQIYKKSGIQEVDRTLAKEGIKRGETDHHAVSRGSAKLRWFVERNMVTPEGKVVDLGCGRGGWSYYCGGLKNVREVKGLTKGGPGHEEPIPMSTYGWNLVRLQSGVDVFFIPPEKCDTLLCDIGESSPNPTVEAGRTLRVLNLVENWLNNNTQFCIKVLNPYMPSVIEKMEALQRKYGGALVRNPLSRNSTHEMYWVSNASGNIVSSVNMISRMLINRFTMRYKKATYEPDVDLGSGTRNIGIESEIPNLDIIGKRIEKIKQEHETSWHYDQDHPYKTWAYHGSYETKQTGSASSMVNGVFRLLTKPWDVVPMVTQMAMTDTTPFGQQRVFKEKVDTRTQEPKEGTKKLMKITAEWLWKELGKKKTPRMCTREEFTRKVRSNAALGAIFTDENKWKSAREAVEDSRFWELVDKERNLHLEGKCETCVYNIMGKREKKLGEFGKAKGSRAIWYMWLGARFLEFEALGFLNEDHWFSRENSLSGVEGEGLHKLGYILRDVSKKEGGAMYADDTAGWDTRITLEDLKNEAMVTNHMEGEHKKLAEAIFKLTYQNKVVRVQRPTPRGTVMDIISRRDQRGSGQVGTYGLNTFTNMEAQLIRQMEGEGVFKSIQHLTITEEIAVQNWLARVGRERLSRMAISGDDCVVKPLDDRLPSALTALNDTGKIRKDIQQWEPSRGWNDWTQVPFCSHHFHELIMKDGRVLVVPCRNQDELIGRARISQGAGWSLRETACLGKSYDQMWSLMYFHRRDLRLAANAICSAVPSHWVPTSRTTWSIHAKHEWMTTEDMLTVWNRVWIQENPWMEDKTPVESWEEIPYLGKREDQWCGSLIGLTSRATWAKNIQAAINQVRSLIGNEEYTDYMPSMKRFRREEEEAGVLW
Chain of Peroxisome proliferator-activated receptor gamma/Nuclear receptor coactivator 2 (P37231 whole entry, the tested form may be a part): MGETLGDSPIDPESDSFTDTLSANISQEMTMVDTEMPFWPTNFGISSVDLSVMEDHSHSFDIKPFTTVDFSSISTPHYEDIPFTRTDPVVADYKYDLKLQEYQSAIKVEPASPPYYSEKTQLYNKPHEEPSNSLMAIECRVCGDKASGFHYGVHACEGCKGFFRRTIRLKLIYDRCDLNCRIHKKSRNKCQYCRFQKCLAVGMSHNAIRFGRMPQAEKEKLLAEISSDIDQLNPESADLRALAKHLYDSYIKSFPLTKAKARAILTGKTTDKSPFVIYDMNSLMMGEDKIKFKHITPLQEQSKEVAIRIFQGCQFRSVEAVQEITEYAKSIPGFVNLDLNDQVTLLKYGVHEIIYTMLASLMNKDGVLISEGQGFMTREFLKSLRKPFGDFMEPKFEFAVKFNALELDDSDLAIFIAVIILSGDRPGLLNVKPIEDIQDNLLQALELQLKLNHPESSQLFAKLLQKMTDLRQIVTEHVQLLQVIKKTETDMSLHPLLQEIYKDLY
Chain of Peroxisome proliferator-activated receptor gamma/Nuclear receptor coactivator 2 (Q15596 whole entry, further chain, the tested form may be a part): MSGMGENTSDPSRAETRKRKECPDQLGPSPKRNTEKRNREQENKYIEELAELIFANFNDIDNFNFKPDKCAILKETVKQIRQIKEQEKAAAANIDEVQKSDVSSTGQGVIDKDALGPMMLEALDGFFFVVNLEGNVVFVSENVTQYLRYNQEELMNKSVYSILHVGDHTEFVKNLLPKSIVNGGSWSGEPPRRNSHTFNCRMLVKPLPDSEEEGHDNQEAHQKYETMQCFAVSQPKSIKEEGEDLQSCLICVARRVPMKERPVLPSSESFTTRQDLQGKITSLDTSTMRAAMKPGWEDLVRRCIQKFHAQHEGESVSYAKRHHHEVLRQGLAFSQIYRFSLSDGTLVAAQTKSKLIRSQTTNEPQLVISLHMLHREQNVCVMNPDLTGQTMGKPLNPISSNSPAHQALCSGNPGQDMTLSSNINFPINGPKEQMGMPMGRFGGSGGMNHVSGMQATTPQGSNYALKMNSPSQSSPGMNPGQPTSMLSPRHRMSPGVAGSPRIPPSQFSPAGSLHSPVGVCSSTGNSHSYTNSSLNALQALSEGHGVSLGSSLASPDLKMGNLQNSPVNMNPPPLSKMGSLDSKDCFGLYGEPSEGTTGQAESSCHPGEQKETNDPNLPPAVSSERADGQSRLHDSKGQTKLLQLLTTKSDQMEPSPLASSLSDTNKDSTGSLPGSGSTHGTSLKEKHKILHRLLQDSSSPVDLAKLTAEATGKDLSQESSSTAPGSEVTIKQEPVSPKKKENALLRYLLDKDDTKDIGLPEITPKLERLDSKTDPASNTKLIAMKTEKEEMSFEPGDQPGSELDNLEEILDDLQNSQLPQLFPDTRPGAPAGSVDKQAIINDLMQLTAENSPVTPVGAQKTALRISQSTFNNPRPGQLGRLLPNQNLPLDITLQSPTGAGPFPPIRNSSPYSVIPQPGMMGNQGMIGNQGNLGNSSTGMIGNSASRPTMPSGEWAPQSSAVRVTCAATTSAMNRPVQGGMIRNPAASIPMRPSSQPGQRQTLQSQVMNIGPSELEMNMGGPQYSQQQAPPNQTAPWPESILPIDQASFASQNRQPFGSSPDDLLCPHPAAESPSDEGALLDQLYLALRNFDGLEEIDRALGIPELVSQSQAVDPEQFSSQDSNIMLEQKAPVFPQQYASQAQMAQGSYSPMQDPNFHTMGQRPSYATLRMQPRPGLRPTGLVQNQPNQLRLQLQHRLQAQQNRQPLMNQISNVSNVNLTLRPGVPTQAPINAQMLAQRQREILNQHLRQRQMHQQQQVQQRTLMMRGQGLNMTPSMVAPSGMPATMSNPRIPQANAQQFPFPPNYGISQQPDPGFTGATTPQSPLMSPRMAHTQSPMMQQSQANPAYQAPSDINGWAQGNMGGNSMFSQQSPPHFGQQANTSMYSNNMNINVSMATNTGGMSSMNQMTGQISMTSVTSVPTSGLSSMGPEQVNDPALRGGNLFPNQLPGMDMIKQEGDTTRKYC
Chain of Phospholipase A2 (P04054 whole entry): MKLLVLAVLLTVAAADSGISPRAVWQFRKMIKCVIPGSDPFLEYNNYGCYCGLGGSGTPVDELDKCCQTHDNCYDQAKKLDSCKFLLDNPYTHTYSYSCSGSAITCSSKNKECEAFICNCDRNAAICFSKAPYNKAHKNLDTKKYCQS
Chain of Nonstructural protein 1 (Q194T2 whole entry): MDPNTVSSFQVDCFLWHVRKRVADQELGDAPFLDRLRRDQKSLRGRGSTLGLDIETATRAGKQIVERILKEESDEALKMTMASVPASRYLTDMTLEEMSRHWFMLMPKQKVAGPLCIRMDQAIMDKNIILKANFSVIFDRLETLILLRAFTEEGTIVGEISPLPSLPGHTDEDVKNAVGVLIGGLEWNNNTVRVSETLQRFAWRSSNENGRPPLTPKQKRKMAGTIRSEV

## COc1cc(/C=C2/C(=O)NC(=O)N(c3ccccc3)C2=O)ccc1O
Genome polyprotein
  IC50: > 100 µM (active)

## CCCOc1ccc2ccccc2c1/C=C1\SC(=O)NC1=O
Phospholipase A2
  IC50: 15.9 µM (active)
[1]
  AC50: 6.89 µM (active)

## O=C(O)c1cc(/C=C/C(=O)c2cc(F)ccc2O)c2c(c1)COCO2
Genome polyprotein
  IC50: > 100 µM (active)

## CCOc1c(Br)cc(/C=C2\C(=O)N(CCC#N)N=C2C)cc1OC
Genome polyprotein
  IC50: > 100 µM (active)
Protein RecA
  EC50: 1.8 µM (active)
[2]
  AC50: 3.43 µM (active)

## COc1cc(/C=C2/C(=O)N(c3cccc(Br)c3)N=C2C)cc(OC)c1O
Prothrombin
  IC50: 39 µM (active)
[3]
  IC50: 13.8 µM (active)
Nonstructural protein 1
  IC50: 14.5 µM (active)
Protein RecA
  EC50: 1.6 µM (active)
[2]
  AC50: 3.93 µM (active)
[4]
  IC50: 23.1 µM (active)
[5]
  IC50: > 100 µM (inactive)

## COc1ccccc1-c1nnc(S)o1
[6]
  EC50: > 79.4 µM (not active)
[7]
  EC50: 59.1 µM (inactive)
[8]
  EC50: 11.9 µM (not active)

## CSc1ccc(NC(=O)CSc2nc3[nH]c(=O)cc(O)c3s2)cc1
Prothrombin
  IC50: 88.3 µM (active)
[4]
  IC50: 68 µM (active)
[5]
  IC50: 40.4 µM (active)
[9]
  IC50: 4.06 µM (active)

## COc1ccc(NC(=O)CSc2sc3c(O)cc(O)nc3c2C#N)c(OC)c1
[10]
  IC50: 35.9 µM (inactive)

## Cc1ccc(N2C(=O)NC(=O)/C(=C\c3cc(C)n(-c4ccc(C(=O)O)cc4)c3C)C2=O)cc1
Genome polyprotein
  IC50: > 100 µM (active)
[11]
  EC50: 6.96 µM (active)
[12]
  EC50: > 300 µM (not active)

## CCn1c(=O)cc(SCC(=O)N2CCOCC2)c2ccccc21
[6]
  EC50: > 79.4 µM (not active)
[7]
  EC50: > 79.4 µM (inactive)
[8]
  EC50: > 79.4 µM (not active)
[13]
  IC50: > 80 µM (inactive)

## COc1ccc(CNC(=O)c2nnn(CC(=O)Nc3cc(C)cc(C)c3)c2N)cc1
Prothrombin
  IC50: 63 µM (active)
[14]
  EC50: > 195 µM (not active)
[4]
  IC50: 18.9 µM (active)
[5]
  IC50: > 100 µM (inactive)
